Laboratory results: patent publication US20220315554A1, “COMPOUNDS COMPRISING A […] LIGAND AND USE THEREOF” (priority 2019, published 2022)
Numbered stars: 1 amine (or outer) side, 2 acyl side, 3 side chain; on linkers, the order of the positions; unused ones are H or OH. Bridge positions count the residues as written; N and C are the ends. Peptide text beside a SMILES is read from it. * marks the point of attachment. X4 = O=C1CN2CCN3CCN(CC(=O)N4CCN(Cc5cc(C[*:1])cc(C[*:2])c5)CC4)CCN(CC2)CC(=O)[O][In]([O]1)[O]C(=O)C3; Hexanoyl = CCCCCC(=O)*

Legend:
[1] = Plasma stability assay, human plasma; type: in vitro ADME; conditions: 24 h incubation, 37° C., read-out: % intact compound remaining after incubation, Human plasma
[2] = Plasma stability assay, mouse plasma; type: in vitro ADME; conditions: 24 h incubation, 37° C., read-out: % intact compound remaining after incubation, Mouse plasma
[3] = biological target: T1, FAP-expressing human WI-38 fibroblasts (Homo sapiens, UniProt Q12884); assay: Competitive FACS binding assay; conditions: pIC50 Category (FACS), competition with 3 nM Cy5-labeled compound, WI-38 fibroblasts, 4° C., 1 hour
T1 construct: FAP-expressing human WI-38 fibroblasts (ECACC) were cultured in EMEM; host or cells: WI-38 human fibroblasts
T1 sequence (Q12884 1-760): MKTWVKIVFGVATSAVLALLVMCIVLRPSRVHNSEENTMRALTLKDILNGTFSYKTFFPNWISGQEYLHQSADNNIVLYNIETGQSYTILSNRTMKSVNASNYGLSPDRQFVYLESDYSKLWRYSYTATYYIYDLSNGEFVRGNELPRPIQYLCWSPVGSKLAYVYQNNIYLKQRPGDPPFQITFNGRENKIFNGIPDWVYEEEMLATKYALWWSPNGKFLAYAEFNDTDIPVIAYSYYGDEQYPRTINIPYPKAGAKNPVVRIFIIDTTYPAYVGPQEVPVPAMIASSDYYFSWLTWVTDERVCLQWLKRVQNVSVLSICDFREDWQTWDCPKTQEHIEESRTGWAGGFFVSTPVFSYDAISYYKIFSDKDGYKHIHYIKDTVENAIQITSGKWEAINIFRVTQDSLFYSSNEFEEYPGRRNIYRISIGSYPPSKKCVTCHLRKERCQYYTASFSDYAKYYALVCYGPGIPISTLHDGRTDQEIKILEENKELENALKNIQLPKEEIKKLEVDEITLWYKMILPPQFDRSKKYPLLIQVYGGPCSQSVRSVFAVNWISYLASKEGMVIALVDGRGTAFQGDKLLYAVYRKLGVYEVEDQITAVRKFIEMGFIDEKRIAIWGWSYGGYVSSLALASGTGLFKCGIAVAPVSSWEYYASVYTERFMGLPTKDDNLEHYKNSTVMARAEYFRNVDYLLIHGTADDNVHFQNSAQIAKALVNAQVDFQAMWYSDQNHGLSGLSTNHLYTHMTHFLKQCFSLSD
Method: Cells were analyzed in an Attune NxT flow cytometer. […]

Human recombinant FAP [4] = biological target: T2, Human recombinant FAP (Homo sapiens, UniProt Q12884); assay: Surface plasmon resonance (Biacore) assay; type: binding
T2 sequence (Q12884 1-760): T1 sequence (Q12884 1-760)

recombinant human PREP = biological target: T3, recombinant human PREP (Homo sapiens, UniProt P48147); assay: PREP protease activity assay; type: biochemical
T3 construct: purchased R&D systems 4308-SE
T3 sequence (P48147 1-710): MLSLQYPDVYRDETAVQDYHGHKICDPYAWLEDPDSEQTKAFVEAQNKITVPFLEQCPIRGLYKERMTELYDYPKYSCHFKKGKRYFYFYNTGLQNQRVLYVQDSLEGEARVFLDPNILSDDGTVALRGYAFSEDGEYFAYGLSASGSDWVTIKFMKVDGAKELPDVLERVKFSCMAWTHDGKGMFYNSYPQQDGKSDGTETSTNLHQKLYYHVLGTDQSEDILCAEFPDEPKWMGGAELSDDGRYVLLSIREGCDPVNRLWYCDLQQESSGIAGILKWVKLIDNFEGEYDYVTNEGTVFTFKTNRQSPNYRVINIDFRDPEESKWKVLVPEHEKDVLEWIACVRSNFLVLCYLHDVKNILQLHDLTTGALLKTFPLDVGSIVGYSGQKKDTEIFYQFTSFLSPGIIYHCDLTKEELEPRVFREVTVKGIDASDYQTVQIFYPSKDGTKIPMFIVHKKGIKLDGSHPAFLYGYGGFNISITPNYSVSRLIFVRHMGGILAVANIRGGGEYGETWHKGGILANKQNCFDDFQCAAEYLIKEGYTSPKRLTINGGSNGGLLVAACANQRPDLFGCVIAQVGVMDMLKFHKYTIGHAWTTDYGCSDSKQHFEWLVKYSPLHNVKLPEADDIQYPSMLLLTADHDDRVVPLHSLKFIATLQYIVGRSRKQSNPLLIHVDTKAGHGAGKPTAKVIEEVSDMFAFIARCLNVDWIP

Recombinant human DPP4 = biological target: T4, Recombinant human DPP4 (Homo sapiens, UniProt P27487); assay: DPP4 protease activity assay; type: biochemical
T4 construct: purchased R&D systems 9168-SE
T4 sequence (P27487 whole entry): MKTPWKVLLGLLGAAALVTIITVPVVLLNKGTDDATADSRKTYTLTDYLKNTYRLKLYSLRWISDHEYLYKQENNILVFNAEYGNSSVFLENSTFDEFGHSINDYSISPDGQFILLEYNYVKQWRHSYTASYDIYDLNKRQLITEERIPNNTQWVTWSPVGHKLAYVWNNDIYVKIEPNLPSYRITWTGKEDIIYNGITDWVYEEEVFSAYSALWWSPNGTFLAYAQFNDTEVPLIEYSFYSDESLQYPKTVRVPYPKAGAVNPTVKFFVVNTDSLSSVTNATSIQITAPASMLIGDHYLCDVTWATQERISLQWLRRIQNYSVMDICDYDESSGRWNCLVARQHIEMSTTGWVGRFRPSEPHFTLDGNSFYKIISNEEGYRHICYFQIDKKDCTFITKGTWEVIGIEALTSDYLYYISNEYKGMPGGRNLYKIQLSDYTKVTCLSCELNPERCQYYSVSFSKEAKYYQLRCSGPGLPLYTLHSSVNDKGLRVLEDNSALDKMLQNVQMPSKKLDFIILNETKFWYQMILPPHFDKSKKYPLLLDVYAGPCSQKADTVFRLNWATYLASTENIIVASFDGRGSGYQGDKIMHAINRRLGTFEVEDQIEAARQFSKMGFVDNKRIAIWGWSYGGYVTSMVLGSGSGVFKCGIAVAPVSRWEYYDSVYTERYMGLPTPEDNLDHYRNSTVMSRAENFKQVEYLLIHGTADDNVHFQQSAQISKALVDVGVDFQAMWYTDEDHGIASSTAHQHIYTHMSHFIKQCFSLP

Human recombinant FAP [5] = biological target: T2, Human recombinant FAP; assay: FRET-based FAP protease activity assay; type: biochemical; set-up: purchased R&D systems 3715-SE; conditions: pIC50 Category (Activity), recombinant human FAP, FRET substrate, 37° C.
in vitro = conditions: rat, plasma
KV channel = conditions: read-out: Ki Ref, reference compound (positive control)

Compound	remaining at 24 h, 9.8 µM [1] [%]	remaining at 24 h, 9.8 µM [2] [%]	IC50 [3] [nM]	Kd (Human recombinant FAP [4]) [nM]	IC50 (recombinant human PREP) [nM]	IC50 (Recombinant human DPP4) [nM]	IC50 (Human recombinant FAP [5]) [nM]	remaining at 24 h, 9.8 µM (in vitro) [%]	Ki (KV channel) [nM]
CCCC[C@H](NC(=O)CCC(=O)NCCCOCCOCCOCCCNC(=O)CN1CCN(CC(=O)O)CCN(CC(=O)O)CCN(CC(=O)O)CC1)C(=O)N[C@H]1CSCc2cccc(c2)CSC[C@@H](C(=O)NCCC(=O)O)NC(=O)[C@H](Cc2ccccc2)NC(=O)[C@H](CCC(N)=O)NC(=O)[C@H]([C@@H](C)O)NC(=O)[C@@H]2CCCN2C(=O)[C@@H]2CCCN2C1=O [3BP-3398, DOTA-Ttds-Nle-[Cys(3MeBn)-Pro-Pro-Thr-Gln-Phe-Cys]-Bal-OH]	99	94	< 10	< 10	> 1000	> 1000	< 10	–	–
CCCCCC(=O)N[C@H]1CSCc2cc(CSCCNC(=O)CN3CCN4CCN5CCN(CC3)CC(=O)[O][Lu]([O]C(=O)C4)[O]C(=O)C5)cc(c2)CSC[C@@H](C(=O)O)NC(=O)[C@H](Cc2ccccc2)NC(=O)[C@H](CCC(N)=O)NC(=O)[C@H]([C@@H](C)O)NC(=O)[C@@H]2CCCN2C(=O)[C@@H]2CCCN2C1 [3BP-3624, Lutetium-Complex of Hex-[Cys(tMeBn(DOTA-AET))-Pro-Pro-Thr-Gln-Phe-Cys]-OH]	100	100	< 10	< 10	–	–	< 10	100	–
CCCCCC(=O)N[C@H]1CSCc2cccc(c2)CSC[C@@H](C(=O)N[C@@H](CCCCNC(=O)CN2CCN(CC(=O)O)CCN(CC(=O)O)CCN(CC(=O)O)CC2)CC(=O)O)NC(=O)[C@H](Cc2ccccc2)NC(=O)[C@H](CCC(N)=O)NC(=O)[C@H]([C@@H](C)O)NC(=O)[C@@H]2CCCN2C(=O)[C@@H]2CCCN2C1=O [3BP-3397, Hex-[Cys(3MeBn)-Pro-Pro-Thr-Gln-Phe-Cys]-Bhk(DOTA)-OH]	100	92	< 10	< 10	> 1000	> 1000	< 10	–	–
CCCCCC(=O)N[C@H]1CSCc2cc(cc(CN3CCN(C(=O)CN4CCN5CCN6CCN(CC4)CC(=O)[O][In]([O]C(=O)C6)[O]C(=O)C5)CC3)c2)CSC[C@@H](C(=O)N[C@@H](CC(=O)O)C(N)=O)NC(=O)[C@H](Cc2ccccc2)NC(=O)[C@H](CCC(N)=O)NC(=O)[C@H]([C@@H](C)O)NC(=O)[C@@H]2CCCN2C(=O)[C@@H]2CCCN2C1=O [3BP-3590, Indium-Complex of Hex-[Cys(tMeBn(DOTA-PP))-Pro-Pro-Thr-Gln-Phe-Cys]-Asp-NH2] (Hexanoyl-CPPTQFCD-NH2; linker 1-7 via X4)	94	100	< 10	< 10	–	–	< 10	100	–
alpha-dendrotoxin	–	–	–	–	–	–	–	–	0.097
